Measured values published in PubChem BioAssay (NCI).
Several values for one entry are separate records, joined by “and”; a condition that tells them apart may be missing. Equal entries are not always repeated.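 Cultured in 96-well plates, cells were exposed to test compound for 48 hours across five concentrations. The concentration for 50% growth inhibition is given as GI50. Definition used: TGI = concentration required for complete inhibition of growth.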

Legend:
Experiment in all cases: NCI-60 cell line screen, 48 h
A498 renal = system: A498 renal
ACHN renal = system: ACHN renal
K-562 leukemia = system: K-562 leukemia
MDA-MB-231 breast = system: MDA-MB-231 breast
NCI-H23 lung = system: NCI-H23 lung
OVCAR-4 ovarian = system: OVCAR-4 ovarian
OVCAR-5 ovarian = system: OVCAR-5 ovarian
SNB-75 CNS = system: SNB-75 CNS
TK-10 renal = system: TK-10 renal
UACC-62 melanoma = system: UACC-62 melanoma

| Compound | GI50 (A498 renal) | TGI (A498 renal) | GI50 (ACHN renal) | TGI (ACHN renal) | GI50 (K-562 leukemia) | TGI (K-562 leukemia) | GI50 (MDA-MB-231 breast) | TGI (MDA-MB-231 breast) | GI50 (NCI-H23 lung) | TGI (NCI-H23 lung) | GI50 (OVCAR-4 ovarian) | TGI (OVCAR-4 ovarian) | GI50 (OVCAR-5 ovarian) | TGI (OVCAR-5 ovarian) | GI50 (SNB-75 CNS) | TGI (SNB-75 CNS) | GI50 (TK-10 renal) | TGI (TK-10 renal) | GI50 (UACC-62 melanoma) | TGI (UACC-62 melanoma) |
| --- | --- | --- | --- | --- | --- | --- | --- | --- | --- | --- | --- | --- | --- | --- | --- | --- | --- | --- | --- | --- |
| O=C=Nc1ccc(Cc2ccc(N=C=O)cc2)cc1 (tested in a mixture with another compound) | > 25 µg/mL | > 25 µg/mL | > 25 µg/mL | > 25 µg/mL | 12.3 µg/mL | > 25 µg/mL | > 25 µg/mL | > 25 µg/mL | > 25 µg/mL | > 25 µg/mL | > 25 µg/mL | > 25 µg/mL | > 25 µg/mL | > 25 µg/mL | > 25 µg/mL | > 25 µg/mL | > 25 µg/mL | > 25 µg/mL | > 25 µg/mL | > 25 µg/mL |
| O=C1Nc2ccccc2SC1C1SC(=S)N(Cc2ccccc2)C1=O (stereo not drawn) | 14.6 µM | 32.9 µM | 7.41 µM | 20.3 µM | 2.65 µM | > 81.1 µM | 3.65 µM | 12.9 µM | 11.8 µM | 35.2 µM | 13.9 µM | 33.7 µM | 20.2 µM | 37 µM | 10.5 µM | 24.6 µM | 5.71 µM | 22 µM | 10.6 µM | 23.3 µM |
| CC/C(=C(\c1ccc(O)cc1)c1ccc(OCCNC)cc1)c1ccccc1 | 2.33 µM and 1.84 µM | 10.2 µM and 4.12 µM and 8.67 µM | 2.11 µM and 1.65 µM and 1.94 µM | 4.85 µM and 3.48 µM and 4.1 µM | 2 µM and 1.74 µM and 2.11 µM | 4.88 µM and 3.89 µM and 5.66 µM | 1.89 µM and 1.65 µM and 1.61 µM | 4.31 µM and 3.52 µM and 3.22 µM | 2.13 µM and 1.97 µM and 2.1 µM | 4.8 µM and 4.29 µM and 4.45 µM | 4.62 µM and 4.21 µM | 18.5 µM and 15 µM | 2.82 µM and 2.44 µM and 2.09 µM | 8.23 µM and 6.35 µM and 4.77 µM | 2.15 µM and 1.96 µM and 1.32 µM | 7.39 µM and 6.81 µM and 2.76 µM | 2.39 µM and 1.88 µM and 2.56 µM | 5.5 µM and 3.89 µM and 6.26 µM | 1.66 µM and 1.65 µM and 1.78 µM | 3.41 µM and 3.24 µM and 3.44 µM |
| Cc1ccnc2c1NC(=O)c1cccnc1N2C1CC1 | > 100 µM | > 100 µM | > 100 µM | > 100 µM | > 100 µM | > 100 µM | > 100 µM | > 100 µM | > 100 µM | > 100 µM | > 100 µM | > 100 µM | > 100 µM | > 100 µM | 54.4 µM | > 100 µM | > 100 µM | > 100 µM | > 100 µM | > 100 µM |
| CC(=O)N1c2ccccc2C23CCN4CC5=CCOC(O)C(C5CC42)C13 (stereo not drawn) |  | > 100 µM |  | > 100 µM |  | > 100 µM |  | > 100 µM |  | > 100 µM |  | > 100 µM |  | > 100 µM |  | > 100 µM |  | > 100 µM |  | > 100 µM |
| NC(N)=NC(N)=NCCc1ccccc1 |  | > 100 µM | > 100 µM | > 100 µM | 66.6 µM and 30.8 µM | > 100 µM | > 100 µM | > 100 µM | 50.5 µM and 34.7 µM | > 100 µM | 66.7 µM and 97.9 µM | > 100 µM | > 100 µM | > 100 µM | > 100 µM and 81.2 µM | > 100 µM | 58.6 µM and > 100 µM | > 100 µM | > 100 µM | > 100 µM |
| O=C1C(Nc2ccccn2)=C(I)C(=O)c2ncccc21 | 1.26 µM | 2.74 µM | 0.403 µM | 4.49 µM | 0.367 µM | 4.29 µM | 1.53 µM | 4.86 µM | 0.584 µM | 2.61 µM | 1.07 µM | 2.27 µM | 1.71 µM | 3.25 µM | 1.01 µM | 2.23 µM | 1.87 µM | 3.65 µM | 1.28 µM | 2.67 µM |
| O=C(N/N=C/c1cc2ccccc2c2ccccc12)c1cc(O)c(O)c(O)c1 | 13.3 µM | 27 µM | 3.25 µM | 12.6 µM | 3.57 µM | 51 µM | 2.7 µM | 10.1 µM | 3.4 µM | 14.3 µM | 2.38 µM | 35.8 µM | 8.85 µM | 25.7 µM | 2.1 µM | 14.3 µM | 4.48 µM | 30.7 µM | 2.75 µM | 9.4 µM |
| N#Cc1c(NC(=O)CCC(=O)O)ccc2ccccc12 |  | > 100 µM |  | > 100 µM |  | > 100 µM |  | > 100 µM |  | > 100 µM |  | > 100 µM |  | > 100 µM |  | > 100 µM |  | > 100 µM |  | > 100 µM |
| C=CC1=C(C)C2=NC1=CC1=NC(=C(CC)/C1=C/O)C=C1C=C3C(=O)C(C(=O)OC)C(=C4NC(=C2)C(C)C4CCC(=O)OC/C=C(\C)CCCC(C)CCCC(C)CCCC(C)C)C3=N1 (stereo not drawn) (tested in a mixture with another compound) |  | > 100 µM |  | > 100 µM |  | > 100 µM |  | > 100 µM |  | > 100 µM |  | > 100 µM |  | > 100 µM |  | > 100 µM |  | > 100 µM |  | > 100 µM |
| O=c1cccc(C#CCCCCOC2CCCO2)o1 (stereo not drawn) | 4.09 µM |  | 27.5 µM | 60.5 µM | 52.3 µM | > 100 µM | 15.4 µM | 51.5 µM | 5 µM | 14.9 µM | > 33.4 µM | > 60.1 µM | 19.7 µM | > 41.2 µM | 11.4 µM | > 21.4 µM | 13.4 µM | 35.6 µM | 15.9 µM | > 56.8 µM |
